test system: progranulin (PGRN); experiment: progranulin induction cellular assay (PGRN assay), ELISA-based readout; details: PGRN assay as described: mouse primary microglia, primary cortical neurons and BV-2 cell lines; secreted mouse PGRN in medium by ELISA; cell type for Table B not specified
Procedure: Cellular Assays: To measure the efficacy of compounds, a progranulin induction cellular assay in mouse primary microglia (pMG), primary cortical neurons, and BV-2 cell lines is used. BV-2 cells are split the day before plating into a 96 well plate format at approximately 80%. Cells should be plated the day before and allowed for 1 hour attachment period and for 16 hour incubation. Levels of progranulin secreted into the cell culture medium or retained in the cell lysate can be quantified using an ELISA-based readout and measurement of secreted mouse PGRN in the medium was assessed by the methodology published by Ghidoni et al. 2012. Standard ELISA kits to measure PGRN are available from vendors such as Adipogen, R&D, and Biovendor.
Table B below presents the results of a PGRN assay as described above.

SMILES | EC50 [nM]
CN(C)[C@H]1C[C@@H](NC(=O)N2CCc3ccccc3[C@@H]2c2ccc(F)cc2)C1 [Compound 4069] | 672
N[C@H]1C[C@@H](CC(=O)N2CCc3ccccc3[C@@H]2c2ccc(F)cc2)C1 [Compound 4121] | 365
NC[C@@H]1CC[C@H]1OC(=O)N1CCc2ccccc2[C@@H]1c1ccc(F)cc1 [Compound 4123] | > 2100
CN(C)[C@H]1C[C@@H](CC(=O)N2CCc3ccccc3[C@@H]2c2ccc(F)cc2)C1 [Compound 4126] | 571
CN(C)[C@H]1C[C@@H](OC(=O)N2CCc3ccccc3[C@@H]2c2ccc(F)cc2)C1 [Compound 4127] | 773
CCN[C@H]1C[C@H](OC(=O)N2CCc3ccccc3[C@@H]2c2ccc(F)cc2)C1 [Compound 4130] | 740
N[C@@H]1CC[C@@H]1CNC(=O)N1CCc2ccccc2[C@@H]1c1ccc(F)cc1 [Compound 4131] | 359
N[C@@H]1CC[C@@H]1COC(=O)N1CCc2ccccc2[C@@H]1c1ccc(F)cc1 [Compound 4132, ((1S,2R)-2-aminocyclobutyl)methyl (S)-1-(4-fluorophenyl)-3,4-dihydroisoquinoline-2(1H)-carboxylate] | 1010
N[C@H]1CC[C@H]1COC(=O)N1CCc2ccccc2[C@@H]1c1ccc(F)cc1 [Compound 4133, ((1R,2S)-2-aminocyclobutyl)methyl (S)-1-(4-fluorophenyl)-3,4-dihydroisoquinoline-2(1H)-carboxylate] | 864
N[C@H]1CC[C@@H]1COC(=O)N1CCc2ccccc2[C@@H]1c1ccc(F)cc1 [Compound 4134, ((1S,2S)-2-aminocyclobutyl)methyl (S)-1-(4-fluorophenyl)-3,4-dihydroisoquinoline-2(1H)-carboxylate] | 1290
NC12CC(NC(=O)N3CCc4ccccc4[C@@H]3c3ccccc3)(C1)C2 [Compound 4135, (S)—N-(3-aminobicyclo[1.1.1]pentan-1-yl)-1-phenyl-3,4-dihydroisoquinoline-2(1H)-carboxamide] | 1610
NC12CC(OC(=O)N3CCc4ccccc4[C@@H]3c3ccccc3)(C1)C2 [Compound 4136, 3-aminobicyclo[1.1.1]pentan-1-yl (S)-1-phenyl-3,4-dihydroisoquinoline-2(1H)-carboxylate] | 604
N[C@H]1CC[C@H](C(=O)N2CCc3ccccc3[C@@H]2c2ccc(F)cc2)CC1 [Compound 4144] | 3120

The next compounds have a lower EC50 than those just listed; values first:

EC50 [nM] | SMILES
347 | NC[C@@H]1CC[C@@H]1OC(=O)N1CCc2ccccc2[C@@H]1c1ccc(F)cc1 [Compound 4124]
319 | CN(C)[C@H]1C[C@H](OC(=O)N2CCc3ccccc3[C@@H]2c2ccc(F)cc2)C1 [Compound 4128]
318 | CCN[C@H]1C[C@@H](OC(=O)N2CCc3ccccc3[C@@H]2c2ccc(F)cc2)C1 [Compound 4129]
280 | CN(C)[C@H]1C[C@H](CC(=O)N2CCc3ccccc3[C@@H]2c2ccc(F)cc2)C1 [Compound 4125]
208 | N[C@H]1C[C@H](CC(=O)N2CCc3ccccc3[C@@H]2c2ccc(F)cc2)C1 [Compound 4122]
191 | O=C(O[C@H]1C[C@@H](NCCO)C1)N1CCc2ccccc2[C@@H]1c1ccc(F)cc1 [Compound 4145, cis-3-((2-hydroxyethyl)amino)cyclobutyl (S)-1-(4-fluorophenyl)-3,4-dihydroisoquinoline-2(1H)-carboxylate]
89 | O=C(O[C@H]1C[C@H](NCCO)C1)N1CCc2ccccc2[C@@H]1c1ccc(F)cc1 [Compound 4146, trans-3-((2-hydroxyethyl)amino)cyclobutyl (S)-1-(4-fluorophenyl)-3,4-dihydroisoquinoline-2(1H)-carboxylate]
84 | N[C@H]1CC[C@@H](C(=O)N2CCc3ccccc3[C@@H]2c2ccc(F)cc2)CC1 [Compound 4143, cis-(S)-(4-aminocyclohexyl)(1-(4-fluorophenyl)-3,4-dihydroisoquinolin-2(1H)-yl)methanone]

— patent US20230115534A1 (ARKUDA THERAPEUTICS, priority 2019, published 2023)
